Experiment [1] deals with T1, Serine/threonine-protein kinase 17B (Homo sapiens, UniProt O94768).
T1 sequence (O94768 whole entry): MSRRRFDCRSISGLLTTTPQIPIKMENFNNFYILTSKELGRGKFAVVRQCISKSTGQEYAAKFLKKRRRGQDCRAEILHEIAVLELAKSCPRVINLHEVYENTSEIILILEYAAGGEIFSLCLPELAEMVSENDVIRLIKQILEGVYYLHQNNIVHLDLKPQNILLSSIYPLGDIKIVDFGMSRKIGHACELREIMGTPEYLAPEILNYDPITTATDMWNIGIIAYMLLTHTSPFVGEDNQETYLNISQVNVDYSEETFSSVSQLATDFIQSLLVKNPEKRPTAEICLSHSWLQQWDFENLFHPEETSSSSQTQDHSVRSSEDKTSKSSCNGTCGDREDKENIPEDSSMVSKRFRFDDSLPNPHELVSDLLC
Put plainly: Inhibition of DRAK2 (unknown origin) using MRLC3 peptide as substrate incubated for 2 hrs by ADP-Glo kinase assay.

The target of experiment [2] is Death-associated protein kinase 1 (Homo sapiens, UniProt P53355). In words: Inhibition of DAPK1 (unknown origin).
The target in experiment [3] is Death-associated protein kinase 2 (Homo sapiens, UniProt Q9UIK4). In words: Inhibition of DAPK2 (unknown origin).
The target in experiment [4] is Death-associated protein kinase 3 (Homo sapiens, UniProt O43293). In words: Inhibition of DAPK3 (unknown origin).
Experiment [5] addresses T2, Serine/threonine-protein kinase 17A (Homo sapiens, UniProt Q9UEE5).
T2 sequence (Q9UEE5 whole entry): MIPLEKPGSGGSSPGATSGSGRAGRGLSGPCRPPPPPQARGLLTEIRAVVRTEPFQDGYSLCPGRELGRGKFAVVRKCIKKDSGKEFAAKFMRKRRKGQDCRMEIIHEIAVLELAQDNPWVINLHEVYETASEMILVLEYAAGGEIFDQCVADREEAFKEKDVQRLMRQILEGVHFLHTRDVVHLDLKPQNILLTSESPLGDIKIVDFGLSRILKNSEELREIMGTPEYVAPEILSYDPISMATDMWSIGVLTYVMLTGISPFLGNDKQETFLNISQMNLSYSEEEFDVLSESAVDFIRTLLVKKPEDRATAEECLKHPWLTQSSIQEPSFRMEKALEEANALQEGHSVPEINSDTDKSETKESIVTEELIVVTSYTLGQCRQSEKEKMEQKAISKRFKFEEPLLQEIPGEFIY
In words: Inhibition of DRAK1 (unknown origin).

Experiment [6] deals with T1, Serine/threonine-protein kinase 17B. Put plainly: Competitive inhibition of DRAK2 (unknown origin) using MRLC3 peptide as substrate incubated for 2 hrs by Lineweaver-Burk plot analysis in presence of ATP.
For experiment [7], the target named is ALK tyrosine kinase receptor (Homo sapiens, UniProt Q9UM73). Put plainly: Inhibition of ALK (unknown origin) using peptide substrate incubated for 30 mins by europium donor dye-based plate reader analysis.
A further experiment deals with Activated CDC42 kinase 1 (Homo sapiens, UniProt Q07912). In words: Inhibition of AcK1 (unknown origin) using peptide substrate incubated for 30 mins by europium donor dye-based plate reader analysis.
For experiment [8], the target named is T3, Epidermal growth factor receptor (Homo sapiens, UniProt P00533). Put plainly: Inhibition of EGFR (746 to 750) deletion mutant (unknown origin) using peptide substrate incubated for 30 mins by europium donor dye-based plate reader analysis. The class given is protein assay.
Target sequence in this assay (P00533 25-1210 limits assumed, stated change not applied): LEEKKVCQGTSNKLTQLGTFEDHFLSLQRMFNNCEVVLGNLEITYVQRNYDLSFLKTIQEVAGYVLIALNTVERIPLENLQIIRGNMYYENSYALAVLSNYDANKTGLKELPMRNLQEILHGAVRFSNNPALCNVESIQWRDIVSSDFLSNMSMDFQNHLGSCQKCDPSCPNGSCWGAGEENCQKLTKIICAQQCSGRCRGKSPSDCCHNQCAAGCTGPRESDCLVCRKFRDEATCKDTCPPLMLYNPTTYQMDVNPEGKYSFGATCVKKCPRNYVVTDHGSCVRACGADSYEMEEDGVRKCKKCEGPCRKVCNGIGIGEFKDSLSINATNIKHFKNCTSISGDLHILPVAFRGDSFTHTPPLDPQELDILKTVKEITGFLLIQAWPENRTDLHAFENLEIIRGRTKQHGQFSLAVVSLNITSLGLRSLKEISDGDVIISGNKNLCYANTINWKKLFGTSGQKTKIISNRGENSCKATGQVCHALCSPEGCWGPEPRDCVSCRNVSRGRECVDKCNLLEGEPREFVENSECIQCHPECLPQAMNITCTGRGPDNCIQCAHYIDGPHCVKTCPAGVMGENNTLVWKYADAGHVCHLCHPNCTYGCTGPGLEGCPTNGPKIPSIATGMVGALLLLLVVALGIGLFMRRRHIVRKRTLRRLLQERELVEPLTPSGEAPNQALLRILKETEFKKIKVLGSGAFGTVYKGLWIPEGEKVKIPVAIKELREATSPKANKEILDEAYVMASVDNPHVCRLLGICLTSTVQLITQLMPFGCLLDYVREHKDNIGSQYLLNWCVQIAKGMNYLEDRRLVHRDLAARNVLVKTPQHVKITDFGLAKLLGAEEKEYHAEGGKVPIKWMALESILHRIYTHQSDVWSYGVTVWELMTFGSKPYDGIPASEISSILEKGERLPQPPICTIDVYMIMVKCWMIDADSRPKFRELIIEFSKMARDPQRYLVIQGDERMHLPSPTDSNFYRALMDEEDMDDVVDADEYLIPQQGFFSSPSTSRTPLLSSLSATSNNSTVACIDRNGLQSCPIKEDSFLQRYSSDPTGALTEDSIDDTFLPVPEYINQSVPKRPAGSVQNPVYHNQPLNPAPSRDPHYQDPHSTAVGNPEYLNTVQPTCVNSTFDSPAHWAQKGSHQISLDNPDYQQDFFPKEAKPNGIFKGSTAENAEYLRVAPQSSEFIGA
In experiment [9] the target is Hepatocyte growth factor receptor (Homo sapiens, UniProt P08581). In words: Inhibition of c-MET (unknown origin) using peptide substrate incubated for 30 mins by europium donor dye-based plate reader analysis.
The target of the next experiment is Insulin receptor (Homo sapiens, UniProt P06213). In words: Inhibition of IRK (unknown origin) using peptide substrate incubated for 30 mins by europium donor dye-based plate reader analysis.
Experiment [10] concerns the target T3, Epidermal growth factor receptor. Put plainly: Inhibition of EGFR (unknown origin) using peptide substrate incubated for 30 mins by europium donor dye-based plate reader analysis.
Experiment [11] deals with Maternal embryonic leucine zipper kinase (Homo sapiens, UniProt Q14680). Put plainly: Inhibition of MELK (unknown origin) using peptide substrate incubated for 30 mins by europium donor dye-based plate reader analysis.

Some results are limits rather than exact numbers.

Chain of Hepatocyte growth factor receptor (P08581 whole entry): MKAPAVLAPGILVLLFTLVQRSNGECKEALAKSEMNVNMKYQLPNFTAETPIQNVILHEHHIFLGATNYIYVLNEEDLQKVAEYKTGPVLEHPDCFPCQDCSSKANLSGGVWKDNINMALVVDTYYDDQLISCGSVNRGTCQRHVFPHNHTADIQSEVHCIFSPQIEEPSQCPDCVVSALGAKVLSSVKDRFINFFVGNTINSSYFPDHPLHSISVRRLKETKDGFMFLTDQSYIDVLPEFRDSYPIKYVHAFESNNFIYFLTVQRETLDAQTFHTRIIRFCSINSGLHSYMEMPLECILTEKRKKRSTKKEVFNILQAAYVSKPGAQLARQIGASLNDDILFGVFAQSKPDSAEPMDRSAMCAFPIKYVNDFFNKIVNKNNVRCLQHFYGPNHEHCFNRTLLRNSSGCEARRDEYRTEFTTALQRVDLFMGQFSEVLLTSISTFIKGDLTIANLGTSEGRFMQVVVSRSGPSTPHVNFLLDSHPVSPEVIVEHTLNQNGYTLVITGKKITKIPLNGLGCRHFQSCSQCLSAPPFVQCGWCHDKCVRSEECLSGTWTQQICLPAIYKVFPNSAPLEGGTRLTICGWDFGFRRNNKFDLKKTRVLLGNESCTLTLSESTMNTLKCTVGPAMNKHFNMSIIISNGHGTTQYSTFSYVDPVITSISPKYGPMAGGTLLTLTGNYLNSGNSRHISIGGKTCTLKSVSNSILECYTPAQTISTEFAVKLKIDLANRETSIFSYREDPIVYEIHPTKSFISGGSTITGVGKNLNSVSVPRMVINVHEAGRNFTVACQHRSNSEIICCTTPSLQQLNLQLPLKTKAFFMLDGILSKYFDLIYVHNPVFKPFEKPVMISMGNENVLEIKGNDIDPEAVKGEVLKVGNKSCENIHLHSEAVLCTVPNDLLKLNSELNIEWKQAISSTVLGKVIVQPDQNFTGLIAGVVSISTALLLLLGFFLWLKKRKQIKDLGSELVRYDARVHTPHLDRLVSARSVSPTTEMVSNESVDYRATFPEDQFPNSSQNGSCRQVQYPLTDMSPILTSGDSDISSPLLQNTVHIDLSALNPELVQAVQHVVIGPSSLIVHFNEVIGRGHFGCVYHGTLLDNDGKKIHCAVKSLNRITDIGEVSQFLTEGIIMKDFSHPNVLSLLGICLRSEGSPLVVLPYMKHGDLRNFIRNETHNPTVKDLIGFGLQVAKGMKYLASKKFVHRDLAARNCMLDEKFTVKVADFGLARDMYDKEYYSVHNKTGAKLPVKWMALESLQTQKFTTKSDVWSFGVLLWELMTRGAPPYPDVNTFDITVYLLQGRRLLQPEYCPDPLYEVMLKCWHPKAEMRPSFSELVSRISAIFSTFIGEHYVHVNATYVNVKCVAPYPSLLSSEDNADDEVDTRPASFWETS
Chain of Death-associated protein kinase 2 (Q9UIK4 whole entry): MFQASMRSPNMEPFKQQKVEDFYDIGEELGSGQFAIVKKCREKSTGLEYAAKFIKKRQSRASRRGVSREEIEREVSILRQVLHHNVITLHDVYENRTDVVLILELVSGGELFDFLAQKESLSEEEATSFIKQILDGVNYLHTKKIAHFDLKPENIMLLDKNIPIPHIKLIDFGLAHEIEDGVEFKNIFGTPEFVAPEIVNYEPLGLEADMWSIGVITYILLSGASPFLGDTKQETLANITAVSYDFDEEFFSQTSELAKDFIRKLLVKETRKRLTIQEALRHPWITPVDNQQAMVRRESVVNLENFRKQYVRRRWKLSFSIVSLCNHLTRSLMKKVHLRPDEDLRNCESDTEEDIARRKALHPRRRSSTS
Chain of Maternal embryonic leucine zipper kinase (Q14680 whole entry): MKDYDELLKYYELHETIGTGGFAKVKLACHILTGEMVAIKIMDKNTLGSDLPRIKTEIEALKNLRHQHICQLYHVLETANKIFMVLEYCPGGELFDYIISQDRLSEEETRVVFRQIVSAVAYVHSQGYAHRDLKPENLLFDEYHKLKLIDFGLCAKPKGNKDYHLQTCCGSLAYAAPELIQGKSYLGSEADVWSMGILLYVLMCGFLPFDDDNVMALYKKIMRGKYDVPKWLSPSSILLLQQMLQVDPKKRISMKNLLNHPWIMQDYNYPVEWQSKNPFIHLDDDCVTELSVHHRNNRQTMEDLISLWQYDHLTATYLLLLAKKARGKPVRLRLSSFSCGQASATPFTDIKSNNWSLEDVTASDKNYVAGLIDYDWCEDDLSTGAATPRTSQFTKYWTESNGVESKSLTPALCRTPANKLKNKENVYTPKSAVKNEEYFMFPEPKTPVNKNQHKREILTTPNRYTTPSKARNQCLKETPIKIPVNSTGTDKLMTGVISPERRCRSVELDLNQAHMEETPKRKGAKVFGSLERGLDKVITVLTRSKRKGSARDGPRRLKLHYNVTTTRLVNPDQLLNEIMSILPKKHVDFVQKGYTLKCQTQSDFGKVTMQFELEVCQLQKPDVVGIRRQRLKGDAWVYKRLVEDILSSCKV
Chain of Death-associated protein kinase 3 (O43293 whole entry): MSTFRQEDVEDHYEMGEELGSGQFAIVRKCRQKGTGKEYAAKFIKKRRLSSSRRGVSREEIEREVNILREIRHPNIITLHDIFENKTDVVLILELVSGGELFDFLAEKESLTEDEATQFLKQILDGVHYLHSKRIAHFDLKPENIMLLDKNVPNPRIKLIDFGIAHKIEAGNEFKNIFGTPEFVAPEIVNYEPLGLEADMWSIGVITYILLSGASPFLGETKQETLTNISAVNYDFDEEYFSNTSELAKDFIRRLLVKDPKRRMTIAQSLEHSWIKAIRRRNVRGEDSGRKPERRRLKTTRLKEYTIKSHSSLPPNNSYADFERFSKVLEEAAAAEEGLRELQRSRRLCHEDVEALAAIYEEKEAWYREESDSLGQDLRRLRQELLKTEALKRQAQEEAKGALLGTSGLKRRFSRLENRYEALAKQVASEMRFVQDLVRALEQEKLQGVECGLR
Chain of Activated CDC42 kinase 1 (Q07912 whole entry): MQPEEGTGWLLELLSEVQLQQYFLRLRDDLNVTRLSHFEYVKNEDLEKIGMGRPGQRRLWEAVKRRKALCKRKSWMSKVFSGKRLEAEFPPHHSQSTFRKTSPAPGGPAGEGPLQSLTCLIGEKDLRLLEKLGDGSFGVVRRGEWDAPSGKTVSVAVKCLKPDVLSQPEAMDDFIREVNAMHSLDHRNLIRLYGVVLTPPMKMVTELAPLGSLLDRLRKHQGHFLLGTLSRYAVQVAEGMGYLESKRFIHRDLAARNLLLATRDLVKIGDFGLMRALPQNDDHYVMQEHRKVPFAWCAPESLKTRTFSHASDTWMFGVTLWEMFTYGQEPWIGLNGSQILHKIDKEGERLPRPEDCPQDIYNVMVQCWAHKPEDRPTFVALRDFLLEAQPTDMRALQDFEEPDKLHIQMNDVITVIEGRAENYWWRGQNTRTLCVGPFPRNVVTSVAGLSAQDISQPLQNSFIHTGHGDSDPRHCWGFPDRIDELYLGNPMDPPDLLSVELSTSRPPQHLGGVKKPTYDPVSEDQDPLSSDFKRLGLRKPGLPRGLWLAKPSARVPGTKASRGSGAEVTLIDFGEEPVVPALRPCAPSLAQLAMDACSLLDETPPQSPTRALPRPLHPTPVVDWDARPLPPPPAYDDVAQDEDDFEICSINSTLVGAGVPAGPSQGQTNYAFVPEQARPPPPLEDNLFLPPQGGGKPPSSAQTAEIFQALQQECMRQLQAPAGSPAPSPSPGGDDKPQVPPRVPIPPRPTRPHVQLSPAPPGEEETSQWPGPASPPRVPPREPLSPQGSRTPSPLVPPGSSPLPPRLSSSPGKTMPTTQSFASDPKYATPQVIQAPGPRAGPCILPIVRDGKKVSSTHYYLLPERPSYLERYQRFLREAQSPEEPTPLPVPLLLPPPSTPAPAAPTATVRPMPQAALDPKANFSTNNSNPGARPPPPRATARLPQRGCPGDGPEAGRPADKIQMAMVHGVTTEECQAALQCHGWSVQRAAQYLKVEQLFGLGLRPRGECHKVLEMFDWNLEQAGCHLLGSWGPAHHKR

In general, IC50 refers to the point on the concentration scale where inhibition reaches its midpoint. Higher therefore signals lower potency. On to `O=C1Nc2ccc(F)cc2/C1=C1/Nc2ccccc2C1=O`, for which the IC50 in [1] was above 10000 nM.
Same read-out and setting: for `O=C1Nc2ccc(F)cc2/C1=C1/Nc2ccccc2/C1=N\O` the value was 620 nM; for `O=C1Nc2ccc(I)cc2/C1=C1/Nc2ccccc2C1=O`, 6200 nM; for `Cc1ccc2c(c1)/C(=C1/Nc3ccccc3C1=O)C(=O)N2`, above 10000 nM.
Same read-out and setting: for `O=C1Nc2ccc(Cl)cc2/C1=C1/Nc2ccccc2C1=O` the value was above 10000 nM; for `Cc1cc(Cl)cc2c1NC(=O)/C2=C1\Nc2ccccc2\C1=N/O`, above 10000 nM.
The compound `O=C1Nc2ccccc2/C1=C1/Nc2ccccc2/C1=N\O` returned an IC50 in experiment [1] of 710 nM.
Consider `CC(C)=CC(=O)Nc1ccc2c(c1)/C(=C1/Nc3ccccc3/C1=N\O)C(=O)N2`, for which the IC50 in [2] worked out at 450 nM; in experiment [3] it was 570 nM; in experiment [1] it was 14 nM; in experiment [4] it was 450 nM; in experiment [5] it was 120 nM.
Broadly, the Ki is the dissociation constant of the complex between target and ligand, obtained from inhibition or displacement. On to `CCCCC(=O)Nc1ccc2c(c1)/C(=C1/Nc3ccccc3/C1=N\O)C(=O)N2`, for which, in [6], the Ki worked out at 0.26 nM. Further, the IC50 was above 10000 nM in experiment [7]; above 10000 nM on Activated CDC42 kinase 1; above 10000 nM in experiment [8]; above 10000 nM in experiment [9]; 1800 nM in [2]; above 10000 nM against Insulin receptor. In addition, the IC50 in experiment [3] was 2300 nM; in experiment [1] it was 3 nM; in experiment [4] it was 1800 nM; in [10], above 10000 nM; in experiment [5], 51 nM; in [11] it was above 10000 nM.
For `COc1ccc(C(=O)Nc2ccc3c(c2)/C(=C2/Nc4ccccc4/C2=N\O)C(=O)N3)cc1`, the IC50 turned out to be 330 nM in experiment [1] and 360 nM in experiment [5].
The like results for `O=C1Nc2ccc(NC(=O)c3ccc(Cl)cc3)cc2/C1=C1/Nc2ccccc2/C1=N\O` were, in that order, 3200 nM and 3000 nM.
For `O=C1Nc2ccc(NC(=O)c3ccccc3)cc2/C1=C1/Nc2ccccc2/C1=N\O` the same measures were 200 nM and 360 nM.
For `O=C1Nc2ccc(NC(=O)c3ccccc3F)cc2/C1=C1/Nc2ccccc2/C1=N\O` the same measures were 290 nM and 250 nM.
In the case of `O=C1Nc2ccc(NC(=O)c3cc([N+](=O)[O-])cc([N+](=O)[O-])c3)cc2/C1=C1/Nc2ccccc2/C1=N\O`, the IC50 came out at 77 nM in experiment [1] and 24 nM in experiment [5].
For `O=C1Nc2ccc(NC(=O)C3CCCCC3)cc2/C1=C1/Nc2ccccc2/C1=N\O` the same measures were 120 nM and 110 nM.
`O=C1Nc2ccccc2/C1=C1/Nc2cccc(Br)c2C1=O` came in with an IC50 in experiment [1] above 10000 nM.
In the case of `O=C1Nc2ccc(NC(=O)c3ccccc3C(F)(F)F)cc2/C1=C1/Nc2ccccc2/C1=N\O`, the IC50 in [1] is 120 nM; in experiment [5] it was 320 nM.
The like results for `O=C(/C=C/c1ccccc1)Nc1ccc2c(c1)/C(=C1/Nc3ccccc3/C1=N\O)C(=O)N2` were, in that order, 700 nM and 1100 nM.
The like results for `O=C1Nc2ccc(NC(=O)c3ccc(F)cc3)cc2/C1=C1/Nc2ccccc2/C1=N\O` were, in that order, 1200 nM and 780 nM.
For `Cc1ccc(C(=O)Nc2ccc3c(c2)/C(=C2/Nc4ccccc4/C2=N\O)C(=O)N3)cc1` the same measures were 1300 nM and 1300 nM.
As for `O=C(COc1cccc(Cl)c1)Nc1ccc2c(c1)/C(=C1/Nc3ccccc3/C1=N\O)C(=O)N2`, the IC50 in experiment [1] is 950 nM; in experiment [5], 460 nM.
For `O=C1Nc2ccc(NC(=O)c3ccc([N+](=O)[O-])cc3)cc2/C1=C1/Nc2ccccc2/C1=N\O` the same measures were 1300 nM and 500 nM.
The like results for `O=C1Nc2ccc(NC(=O)c3cccc4ccccc34)cc2/C1=C1/Nc2ccccc2/C1=N\O` were, in that order, 1500 nM and 700 nM.
As to `O=C1Nc2ccc(NC(=O)C3CC3)cc2/C1=C1/Nc2ccccc2/C1=N\O`, the IC50 in experiment [2] is 140 nM; in [3], 170 nM; in [1] it was 8 nM; in experiment [4], 140 nM; in experiment [5], 21 nM.
Regarding `CC(C)(C)CC(=O)Nc1ccc2c(c1)/C(=C1/Nc3ccccc3/C1=N\O)C(=O)N2`, the IC50 was above 10000 nM in [2]; above 10000 nM in [3]; 14 nM in experiment [1]; above 10000 nM in experiment [4]; 24 nM in experiment [5].
Consider `Cc1cc(Cl)cc2c1NC(=O)/C2=C1\Nc2ccccc2C1=O`, for which the IC50 in experiment [1] was above 10000 nM.
Take `CCCC(=O)Nc1ccc2c(c1)/C(=C1/Nc3ccccc3/C1=N\O)C(=O)N2`: the IC50 in experiment [7] was above 10000 nM; on Activated CDC42 kinase 1, above 10000 nM; in [8], 8000 nM; in [9], above 10000 nM; in experiment [2], 510 nM; against Insulin receptor, above 10000 nM. The concentration for half-maximal inhibition (IC50) in experiment [3] is 590 nM; in experiment [1], 10 nM; in experiment [4], 510 nM; in experiment [10], above 10000 nM; in experiment [5], 12 nM; in experiment [11], 1000 nM.
On to `Cc1cc(C)c2c(c1)/C(=C1/Nc3ccccc3C1=O)C(=O)N2`, for which the IC50 in [1] was above 10000 nM.
On the same count and under the same terms, for `O=C1Nc2ccc([N+](=O)[O-])cc2/C1=C1/Nc2cccc(Br)c2C1=O` the value was above 10000 nM.
In the case of `CC(C)(C)C(=O)Nc1ccc2c(c1)/C(=C1/Nc3ccccc3/C1=N\O)C(=O)N2`, the IC50 in experiment [7] is above 10000 nM; at Activated CDC42 kinase 1, above 10000 nM; in [8] it was above 10000 nM; in experiment [9] it was above 10000 nM; in [2], 700 nM; against Insulin receptor, above 10000 nM. Further, the IC50 was 830 nM in experiment [3]; 21 nM in [1]; 700 nM in experiment [4]; above 10000 nM in [10]; 32 nM in experiment [5]; 2800 nM in experiment [11].
`Nc1ccc2c(c1)/C(=C1/Nc3ccccc3C1=O)C(=O)N2`: in [1], 1400 nM corresponded to half-maximal inhibition (IC50).
Same read-out and setting: under `Nc1ccc2c(c1)/C(=C1/Nc3ccccc3/C1=N\O)C(=O)N2` stands 250 nM.
On the same count and under the same terms, under `O=C1Nc2ccccc2/C1=C1/Nc2ccccc2C1=O` [INDIRUBIN] stands above 10000 nM.

(Values after ChEMBL document CHEMBL3797047, “Discovery of indirubin derivatives as new class of DRAK2 inhibitors from high throughput screening” (Bioorg Med Chem Lett, 2016).)
